# Laboratory results from PMC7681013, “Structure and kinetics of indole-3-glycerol phosphate synthase from Pseudomonas aeruginosa: Decarboxylation is not essential for indole formation” (The Journal of Biological Chemistry, 2020).
# Biological target: T1, PaIGPS (Pseudomonas aeruginosa, UniProt P20577)
# T1 construct: gene trpC
# T1 sequence (P20577 1-278): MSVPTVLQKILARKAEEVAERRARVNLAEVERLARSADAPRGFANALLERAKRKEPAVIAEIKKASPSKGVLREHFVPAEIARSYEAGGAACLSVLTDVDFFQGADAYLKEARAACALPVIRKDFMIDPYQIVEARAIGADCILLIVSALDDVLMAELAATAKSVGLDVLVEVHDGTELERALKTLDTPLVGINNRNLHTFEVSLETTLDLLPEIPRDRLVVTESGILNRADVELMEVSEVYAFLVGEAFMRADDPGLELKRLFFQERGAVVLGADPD
# Test: X-ray crystal structure, […] Å
# Assay type: binding
# Conditions: active site, nonreactive substrate analog; seven of eight chains; pH 3.4 crystals
structure (smiles),measurement,value
O=C(O)c1ccccc1NC[C@@H](O)[C@H](O)[C@H](O)COP(=O)(O)O [rCdRP],"X-ray crystal structure, 2.1 Å","The substrate analog, rCdRP, is bound in the active site of the seven more ordered chains."
